Results from patent US20230203480A1, “LIPID NANOPARTICLE FORMULATIONS FOR CRISPR/CAS COMPONENTS” (Intellia Therapeutics, Inc., priority 2016, published 2023).

Test: Pharmacokinetic profile of Lipid A in liver and plasma (LC/MS)
Assay type: in vivo, mouse
Conditions: mice, after LNP administration
Method: Three different guide sequences were separately formulated, according to Example 1, and injected into mice (n=3) to determine the pharmacokinetic profile of Lipid A. Levels of Lipid A in mouse liver and plasma were measured by LC/MS. […] Tmax in liver was achieved within 30 minutes of administration, whereas T112 in plasma and liver were achieved within approximately 5-6 hours of LNP administration.

Tmax (CD-1, mouse, liver, intravenous): ≤ 30 min | T112 in liver: 5 to 6 h | T112 in plasma: 5 to 6 h
Compound: CCCCC/C=C\C/C=C\CCCCCCCC(=O)OCC(COC(=O)CCC(OCCCCCCCC)OCCCCCCCC)COC(=O)OCCCN(CC)CC (stereo not drawn) [Lipid A, (9Z,12Z)-3-((4,4-bis(octyloxy)butanoyl)oxy)-2-((((3-(diethylamino)propoxy)carbonyl)oxy)methyl)propyl octadeca-9,12-dienoate]
